Results: article PMC5458519, “Splicing modulators act at the branch point adenosine binding pocket defined by the PHF5A–SF3b complex” (Nature Communications, 2017)

Legend:
PANC0504 cells = experiment: Growth inhibition of Panc0504 cells expressing PHF5A WT or Y36C; format: cell-based
Method: (§1) Parental HCT116 cells were obtained from ATCC and cultured in RPMI 1,640 medium (Thermo Fisher, GIBCO#11875) supplemented with 10% fetal bovine serum (FBS). Parental Panc0504 cells were obtained from ATCC and cultured in GIBCO RPMI 1,640 medium (Thermo Fisher, GIBCO#11875) supplemented with glucose (to 4.5 g l^−1 final), HEPES (10 mM final), sodium pyruvate (1 mM final), human insulin (10 μg ml^−1 final) and 15% FBS. Cell line authentication was achieved by genetic profiling using polymorphic short tandem repeat (STR) loci (ATCC). All cell lines were free of mycoplasma contamination. […]
(§2) For CellTiter-Glo analysis, 500 cells were seeded in each well of a 384-well plate the day before compound addition. […] Seventy-two hours post compound addition, CellTiter-Glo reagent was added to the medium, incubated and assayed on EnVision Multilabel Reader (PerkinElmer). The luminescence value from each treatment sample was normalized to the average value of the respective DMSO control. […] For heatmap summarization of IC50 shifts, IC50 value was extracted from dosage response curves and the fold changes of IC50 values in PHF5A variants expressing lines over that of the WT lines were calculated and plotted using TIBCO Spotfire software. […]

[1] = test system: global splicing (splice junction usage); experiment: RNA-seq differential splicing analysis in PHF5A WT or Y36C overexpressing cells; format: cell-based; settings: 100 nM
Method: Either PHF5A WT or Y36C mutant-overexpressing cells were treated with either DMSO or E7107 (100 nM and 10 μM) for 6 h in hexaplicate before lysed in TRIzol reagent (Thermo Fisher). After phase separation, the top aqueous phase was further processed using MagMAX-96 Total RNA Isolation Kit (Thermo Fisher, AM1830) for RNA extraction. RNA quality was assessed using Agilent tapestation with RNA screen tape. RNA-seq libraries were prepared by Beijing Genomic Institute (BGI) and sequenced on Illumina Hiseq 4,000 for 6G clean reads per sample. RNA-seq reads were aligned to hg19 by STAR[50] and raw junction counts generated by STAR were used for calculating PSI to quantify splice junction usage relative to all other splice junctions that share the same splice site as described before. Differential PSI were assessed between a pair of sample groups using moderated t-test defined in limma package[52] in Bioconductor. […]
The number of reads which cover the splice junction which excludes a given cassette exon (ES reads) are compared with both the number of spliced reads which share its 3′ splice site yet have an alternative 5′ splice site bordering the cassette exon (exon inclusion reads) and the number of reads which cross the exon–intron boundary at that same 3′ splice site (IR reads). […]

HCT116 cells = experiment: 72 h growth inhibition profiling (CellTiter-Glo cellular viability assay), parental HCT116; format: cell-based; settings: in HCT116
Method: (§3) For CellTiter-Glo analysis, 500 cells were seeded in each well of a 384-well plate the day before compound addition. An 11 pt serial dilution was used starting with a top final dosage of 10 μM for 10 additional doses. DMSO percentage was maintained throughout and a DMSO-only control was included. Seventy-two hours post compound addition, CellTiter-Glo reagent was added to the medium, incubated and assayed on EnVision Multilabel Reader (PerkinElmer). The luminescence value from each treatment sample was normalized to the average value of the respective DMSO control. The dosage response curve plots were generated using Graphpad Prism 6 and fit using nonlinear regression analysis and the log(inhibitor) versus response—Variable slope (four parameters). For heatmap summarization of IC50 shifts, IC50 value was extracted from dosage response curves and the fold changes of IC50 values in PHF5A variants expressing lines over that of the WT lines were calculated and plotted using TIBCO Spotfire software. For IC50s greater than the top dosage, the values were arbitrarily set at 10 μM. Unsupervised clustering analysis was performed in TIBCO Spotfire using the following default parameters: Clustering method: UPGMA; Distance measure: Euclidean; Ordering weight: Average value; Normalization: (None); Empty value replacement: Constant value: 0.

[2] = test system: splicing of SLC25A19, EIF4A1 and MCL1; experiment: Taqman gene expression assay (SLC25A19 mRNA, EIF4A1 pre-mRNA, MCL1 isoforms) in PHF5A WT or Y36C HCT116 cells; format: cell-based; settings: for induction of MCL1 ES and IR events: PHF5A WT cells, dose response, 4 h
Method: Eight thousand cells of indicated genotypes were seeded in each well of 96-well plate and allowed to settle overnight. On the second day, 11 pt serial dilution (1:4 fold dilution across) of indicated compound with a top dosage of 10 μM final was added to the culturing medium. Four hours post compound addition, culturing medium was decanted and washed once with PBS. PBS was then decanted completely from the plate and Lysis buffer (plus DNase I) from TaqMan Gene Expression Cells-to-CT Kit (Thermo Fisher, cat # AM1729) was added according to the manual. After 5 min incubation at RT on the shaker, stop solution was added to each well and incubated for 2 min. Reverse transcription was set up immediately using the Cells-to-CT Kit and cDNAs were used for quantitative real-time PCR analysis using Viia7 (Thermo Fisher). Each reaction is multiplexed with an FAM-labelled probe targeting specific target gene splicing isoforms and a VIC-labelled probe targeted 18S rRNA as loading control. Therefore, the FAM Ct value in each well was first normalized to the VIC Ct value in the same well before further normalization to the FAM/VIC ratio of DMSO-treated control samples to calculate fold change over DMSO. Graphs were generated using Graphpad Prism 6, n=2. Taqman gene expression probes used in these assays are listed in Supplementary Table 1.

[3] = test system: HCT116 resistant clones (SF3B1-R1074H, SF3B1-V1078A/I, PHF5A-Y36C); experiment: 72 h growth inhibition profiling (CellTiter-Glo) of E7107- and herboxidiene-resistant HCT116 clones; format: cell-based; settings: HCT116 clones with SF3B1-R1074H, SF3B1-V1078 or PHF5A-Y36C; 72 h CellTiter-Glo
Method: In total, 2.5 million HCT116 cells were seeded in each 10 cm dish and treated with indicated dosages of splicing modulators for 2 weeks. Compounds were refreshed every 4 days. When needed, confluent dishes were split 1:3 and cells were allowed to recover overnight without splicing modulator treatment after re-seeding. At the end of the compound selection period, surviving individual clones were picked and transferred to 12-well plates. Individual resistant clones were further expanded without splicing modulator treatment and one million cells from each clone were pelleted for genomic DNA extraction using the DNeasy Blood & Tissue Kit from Qiagen. WXS libraries were generated by Novogene Corporation using Agilent SureSelect Human All Exon V6 kit and sequenced on Illumina HiSeq platform. 12G raw data were gathered for each sample. WXS reads were then aligned to hg19 by BWA-MEM[40] and somatic mutations were identified with MuTect2 (ref. [41]) through Sentieon pipeline[42] by pairing resistant clone with parental cell lines. As we selected the resistant clones for WXS, the allele frequencies for the mutations which are responsible for the resistance should be high. We focused on non-silent mutations (among the H3 curated spliceosome genes) with allele frequency higher than 0.2.
as §3

SF3B1 (R1074H) = test system: SF3B1 (R1074H); design: method as in PMID 21981285; settings: single amino acid substitution R1074H in SF3B1; cited from earlier work
[4] = test system: PHF5A variant expressing HCT116 cells; experiment: 72 h growth inhibition profiling (CellTiter-Glo) of PHF5A WT- or Y36/V37 variant-expressing HCT116 cells; format: cell-based; settings: HCT116, 72 h
Method: as §1, §2

CC[C@H](O)[C@@H](C)[C@H]1O[C@@H]1C[C@@](C)(O)/C=C/C=C(\C)[C@H]1OC(=O)C[C@H](O)CC[C@@](C)(O)[C@@H](OC(=O)N2CCN(C3CCCCCC3)CC2)/C=C/[C@@H]1C [E7107]
resistance phenotype on PHF5A Y36C over-expression (PANC0504 cells): partial resistant phenotype | dominant MCL1 splicing event (Sashimi plot of RNA-seq) ([1]; PHF5A WT cells): IR was the dominant event | dominant MCL1 splicing event (Sashimi plot of RNA-seq) ([1]; PHF5A Y36C cells): mainly ES events were observed | GI50 (HCT116 cells; Homo sapiens, HCT-116): 1.5 nM | induction of MCL1 ES and IR events [2]: ‘earlier' induction of MCL1 ES events than IR events at lower doses | MCL1-S production (ES events) in PHF5A-Y36C cells compared to WT ([2]; increasing dosage): enhanced to a higher level | resistance of resistant clones in growth inhibition profiling [3]: SF3B1-R1074H mutation conferred the most robust resistance | effect of SF3B1 R1074H on splicing-modulating and antiproliferative effects (SF3B1 (R1074H)): almost completely abolished

CC(C)C[C@H](NC(=O)[C@H](Cc1ccccc1)NC(=O)c1cnccn1)B(O)O [bortezomib, Bortezomib]
resistance in PHF5A Y36 variant expressing cells [4]: resistance only occurred to the treatment with splicing modulators but not bortezomib | resistance of resistant clones in growth inhibition profiling [3]: did not affect the cell lines' sensitivity

COC(C(C)O)C(C)C1OC1(C)CC(C)C=CC=C(C)C1OC(CC(=O)O)CCC1C (stereo not drawn) [herboxidiene]
GI50 (HCT116 cells; Homo sapiens, HCT-116): 7.6 nM | resistance of resistant clones in growth inhibition profiling [3]: PHF5A-Y36C mutation rendered more resistance

CO[C@]1(C)C[C@@]2(CO2)[C@H](O)[C@@H](/C=C/C(C)=C/C[C@@H]2O[C@H](C)[C@H](NC(=O)/C=C\[C@H](C)OC(C)=O)C[C@@H]2C)O1 [spliceostatin A]
GI50 (HCT116 cells): 0.76 nM | resistance of resistant clones in growth inhibition profiling [3]: SF3B1-R1074H mutation also conferred better resistance

CNC(=O)OC(C)C=CC(=O)NC1CCC(CC=C(C)C=CC2CC3(CO3)CC(C)(C)O2)CC1 (stereo not drawn) [sudemycin D6]
GI50 (HCT116 cells): 149 nM | induction of MCL1 ES and IR events [2]: IR events were not observed | resistance of resistant clones in growth inhibition profiling [3]: SF3B1-R1074H mutation also conferred better resistance

pladienolide B
effect of SF3B1 R1074H on splicing-modulating and antiproliferative effects (SF3B1 (R1074H)): almost completely abolished
